{"source": "patent US20220226342A1", "about": "“COMPOSITIONS AND METHODS OF TREATING LIVER CANCERS” (The Johns Hopkins University, priority 2019, published 2022)", "key": {"HCC 36-3": {"tested_on": "HCC 36-3", "assay": "IC50 in PDO line", "format": "cell-based", "conditions": "Homo sapiens", "description": "(§1) The inventors tested omacetaxine at decreasing concentrations (10 μM, 1 μM, 100 nM, 10 nM and 1 nM) to calculate the half-maximal inhibitory concentration (IC50). […] The IC50 value for each of the 40 HCC PDO lines can be found in Table 2."}, "HCC 71-4": {"tested_on": "HCC 71-4", "assay": "IC50 in PDO line", "format": "cell-based", "conditions": "Homo sapiens", "description": "as §1"}, "HCC 35": {"tested_on": "HCC 35", "assay": "IC50 in PDO line", "format": "cell-based", "conditions": "Homo sapiens", "description": "as §1"}, "HCC 26-3": {"tested_on": "HCC 26-3", "assay": "IC50 in PDO line", "format": "cell-based", "conditions": "Homo sapiens", "description": "as §1"}, "HCC 67-2": {"tested_on": "HCC 67-2", "assay": "IC50 in PDO line", "format": "cell-based", "conditions": "Homo sapiens", "description": "as §1"}, "HCC 26-7": {"tested_on": "HCC 26-7", "assay": "IC50 in PDO line", "format": "cell-based", "conditions": "Homo sapiens", "description": "as §1"}, "HCC 26-2": {"tested_on": "HCC 26-2", "assay": "IC50 in PDO line", "format": "cell-based", "conditions": "Homo sapiens", "description": "as §1"}, "HCC 83-1": {"tested_on": "HCC 83-1", "assay": "IC50 in PDO line", "format": "cell-based", "conditions": "Homo sapiens", "description": "as §1"}, "HCC 77": {"tested_on": "HCC 77", "assay": "IC50 in PDO line", "format": "cell-based", "conditions": "Homo sapiens", "description": "as §1"}, "HCC 25-1": {"tested_on": "HCC 25-1", "assay": "IC50 in PDO line", "format": "cell-based", "conditions": "Homo sapiens", "description": "as §1"}, "HCC 26-4": {"tested_on": "HCC 26-4", "assay": "IC50 in PDO line", "format": "cell-based", "conditions": "Homo sapiens", "description": "as §1"}, "HCC 59": {"tested_on": "HCC 59", "assay": "IC50 in PDO line", "format": "cell-based", "conditions": "Homo sapiens", "description": "as §1"}, "HCC 80-3": {"tested_on": "HCC 80-3", "assay": "IC50 in PDO line", "format": "cell-based", "conditions": "Homo sapiens", "description": "as §1"}, "HCC 80-2": {"tested_on": "HCC 80-2", "assay": "IC50 in PDO line", "format": "cell-based", "conditions": "Homo sapiens", "description": "as §1"}, "HCC 67-3": {"tested_on": "HCC 67-3", "assay": "IC50 in PDO line", "format": "cell-based", "conditions": "Homo sapiens", "description": "as §1"}, "HCC 34-3": {"tested_on": "HCC 34-3", "assay": "IC50 in PDO line", "format": "cell-based", "conditions": "Homo sapiens", "description": "as §1"}, "HCC 83-3": {"tested_on": "HCC 83-3", "assay": "IC50 in PDO line", "format": "cell-based", "conditions": "Homo sapiens", "description": "as §1"}, "HCC 71-2": {"tested_on": "HCC 71-2", "assay": "IC50 in PDO line", "format": "cell-based", "conditions": "Homo sapiens", "description": "as §1"}, "HCC 40": {"tested_on": "HCC 40", "assay": "IC50 in PDO line", "format": "cell-based", "conditions": "Homo sapiens", "description": "as §1"}, "HCC 76": {"tested_on": "HCC 76", "assay": "IC50 in PDO line", "format": "cell-based", "conditions": "Homo sapiens", "description": "as §1"}, "HCC 25-2": {"tested_on": "HCC 25-2", "assay": "IC50 in PDO line", "format": "cell-based", "conditions": "Homo sapiens", "description": "as §1"}, "HCC 80-4": {"tested_on": "HCC 80-4", "assay": "IC50 in PDO line", "format": "cell-based", "conditions": "Homo sapiens", "description": "as §1"}, "HCC 50": {"tested_on": "HCC 50", "assay": "IC50 in PDO line", "format": "cell-based", "conditions": "Homo sapiens", "description": "as §1"}, "HCC 67-1": {"tested_on": "HCC 67-1", "assay": "IC50 in PDO line", "format": "cell-based", "conditions": "Homo sapiens", "description": "as §1"}, "HCC 25-3": {"tested_on": "HCC 25-3", "assay": "IC50 in PDO line", "format": "cell-based", "conditions": "Homo sapiens", "description": "as §1"}, "HCC 26-8": {"tested_on": "HCC 26-8", "assay": "IC50 in PDO line", "format": "cell-based", "conditions": "Homo sapiens", "description": "as §1"}, "6 HCC PDO lines": {"tested_on": "6 HCC PDO lines", "assay": "cleaved caspase 3 flow cytometry", "format": "cell-based, human", "description": "FIG. 5A-5E. Apoptosis analysis of HCC PDOs treated with omacetaxine in vitro. Organoids were plate on 24 well plate, omacetaxine at 700 μM, 350 μM were added to cell culture medium for 96 h. Then cells were collected and subjected to the analysis below. (5A and 5C). Flow cytometry analysis of 4 HCC PDOs apoptosis using Annexin V/7AAD assay. […] (5B and 5D). Flow cytometry analysis of cleaved caspase 3 expression of omacetaxine treated HCC PDOs. […] The effects on proliferation were assessed to elucidate the omacetaxine mechanisms of action. […] To further understand the effects of omacetaxine on cancer cell proliferation and cell cycle, the inventors performed FACS analysis of Ki67 protein. Ki-67 is a nuclear protein expressed in proliferating cells (in all phases of the cell cycle except G0)^22,23. Furthermore, the higher expression of Ki67 has been linked to poorer disease free survival and overall survival in HCC^24. […] As caspase 3 is a key molecule in apoptosis, the inventors measured its activated (cleaved) fragment."}, "40 HCC PDO lines": {"tested_on": "40 HCC PDO lines", "assay": "10 μM drug screening, cell viability at 96 h (CellTiter-Glo)", "format": "cell-based, human", "description": "FIG. 2A-2E. 10 μM drug screening and IC50 calculation across 40 PDOs from 20 HCC patients. (2A). 10 μM drug screening of omacetaxine and sorafenib, regorafenib, lenvatinib and cabozantinib on 40 PDOs derived from 20 HCC patients. X axis—the 40 PDO lines, Y axis—Cell viability. (2B). IC50 curve of 40 PDO lines, x-axis—omacetaxine dose, Y axis—Relative cell viability. (2C). […] (2D). IC50 distribution of 40 HCC PDOs. X axis—PDO lines, Y axis—IC50 number of omacetaxine for each PDO.\nAs readout of drug effectiveness, cell viability at 96 hours (h) was measured. White light microscopy images of one of the HCC PDO lines across 129 drugs was prepared. In FIG. 2E, each panel represents the image collected at 96 hours after treatment with each drug, at a concentration of 10 μM. […] To quantify survival, we implemented CellTiter-Glo, a luminescent cell viability assay. A total of 129 readings (one for each drug) was obtained for each of the 40 PDO lines, for a total of […] data points. […] Next, the inventors contrasted the survival of the […] HCC PDO lines when treated with omacetaxine versus current FDA approved drugs for HCC."}}}
{"smiles": "COC(=O)C[C@](O)(CCCC(C)(C)O)C(=O)O[C@@H]1C(OC)=C[C@]23CCCN2CCc2cc4c(cc2[C@H]13)OCO4", "note": "[omacetaxine, omacetaxine mepusuccinate]", "values": [{"measurement": "IC50", "setting": "HCC 36-3", "value": 80.7, "unit": "nM"}, {"measurement": "IC50", "setting": "HCC 71-4", "value": 9.98, "unit": "nM"}, {"measurement": "IC50", "setting": "HCC 35", "value": 13.1, "unit": "nM"}, {"measurement": "IC50", "setting": "HCC 26-3", "value": 27.8, "unit": "nM"}, {"measurement": "IC50", "setting": "HCC 67-2", "value": 12.8, "unit": "nM"}, {"measurement": "IC50", "setting": "HCC 26-7", "value": 1.41, "unit": "nM"}, {"measurement": "IC50", "setting": "HCC 26-2", "value": 118, "unit": "nM"}, {"measurement": "IC50", "setting": "HCC 83-1", "value": 17.7, "unit": "nM"}, {"measurement": "IC50", "setting": "HCC 77", "value": 46.1, "unit": "nM"}, {"measurement": "IC50", "setting": "HCC 25-1", "value": 37.4, "unit": "nM"}, {"measurement": "IC50", "setting": "HCC 26-4", "value": 33.5, "unit": "nM"}, {"measurement": "IC50", "setting": "HCC 59", "value": 21.2, "unit": "nM"}, {"measurement": "IC50", "setting": "HCC 80-3", "value": 15.7, "unit": "nM"}, {"measurement": "IC50", "setting": "HCC 80-2", "value": 44, "unit": "nM"}, {"measurement": "IC50", "setting": "HCC 67-3", "value": 1.67, "unit": "nM"}, {"measurement": "IC50", "setting": "HCC 34-3", "value": 37.7, "unit": "nM"}, {"measurement": "IC50", "setting": "HCC 83-3", "value": 8.85, "unit": "nM"}, {"measurement": "IC50", "setting": "HCC 71-2", "value": 2.05, "unit": "nM"}, {"measurement": "IC50", "setting": "HCC 40", "value": 15.8, "unit": "nM"}, {"measurement": "IC50", "setting": "HCC 76", "value": 35.5, "unit": "nM"}, {"measurement": "IC50", "setting": "HCC 25-2", "value": 11.7, "unit": "nM"}, {"measurement": "IC50", "setting": "HCC 80-4", "value": 3.18, "unit": "nM"}, {"measurement": "IC50", "setting": "HCC 50", "value": 29.8, "unit": "nM"}, {"measurement": "IC50", "setting": "HCC 67-1", "value": 4.03, "unit": "nM"}, {"measurement": "IC50", "setting": "HCC 25-3", "value": 60.1, "unit": "nM"}, {"measurement": "IC50", "setting": "HCC 26-8", "value": 37.8, "unit": "nM"}, {"measurement": "cleaved caspase 3", "setting": "6 HCC PDO lines", "value": "induced"}, {"measurement": "survival of HCC PDO lines versus FDA approved HCC drugs (sorafenib, lenvatinib, regorafenib, cabozantinib)", "setting": "40 HCC PDO lines", "value": "significantly more effective than first line HCC drugs (sorafenib and lenvatinib) and second line HCC drugs (regorafenib and cabozantinib"}, {"measurement": "effectiveness in screen (growth inhibited by ≥50%)", "setting": "40 HCC PDO lines; 96 h", "value": "effective across all 40 HCC PDO lines"}, {"measurement": "average HCC PDO survival", "setting": "40 HCC PDO lines; 96 h, across all 40 HCC PDO lines", "value": 4.2, "unit": "%"}]}
